# Molecular target: SMYD3 (Homo sapiens (Human), UniProt Q9H7B4)
# Test: SMYD3 biochemical assay (SPA, 3H-SAM methylation of MEKK2 protein substrate)
# Settings: read-out: SMYD3 Biochem IC50 (μM)*
# Outline: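 Enzyme: untagged full-length human SMYD3 from E. coli; substrate GST-tagged MEKK2 from insect cells. Buffer 25 mM Tris-Cl pH 8.0, 1 mM TCEP, 0.005% BSG/Tween 20. 30 min compound–enzyme preincubation at RT; 3H-SAM/MEKK2 start; stop with cold SAM (100 uM final); SPA readout in cpm.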
row,SMILES,IC50 [µM]
1,"C[C@@H]1CC(NC(=O)c2cc(C3CC3)on2)CCN1C(=O)[C@@H]1CC[C@H](N)C1 (stereo partly drawn) [compound 96, N-((2R)-1-((1R,3S)-3-aminocyclopentane-1-carbonyl)-2-methylpiperidin-4-yl)-5-cyclopropylisoxazole-3-carboxamide]",1.9
2,"C[C@@H]1CC(NC(=O)c2cc(C3CC3)on2)CCN1C(=O)[C@H]1C[C@H](N)C1 (stereo partly drawn) [compound 97, N-((2R)-1-((1r,3R)-3-aminocyclobutane-1-carbonyl)-2-methylpiperidin-4-yl)-5-cyclopropylisoxazole-3-carboxamide]",0.779
3,"CCCC1CC(NC(=O)c2cc(C3CC3)on2)CCN1C(=O)[C@H]1CC[C@H](N)CC1 (stereo partly drawn) [compound 98, N-(1-((1r,4r)-4-aminocyclohexane-1-carbonyl)-2-propylpiperidin-4-yl)-5-cyclopropylisoxazole-3-carboxamide]",0.655
4,"N[C@H]1CC[C@H](C(=O)N2CCC(NC(=O)c3cc(C4CC4)on3)CC23CCC3)CC1 (stereo partly drawn) [compound 100, N-(5-((1r,4r)-4-aminocyclohexane-1-carbonyl)-5-azaspiro[3.5]nonan-8-yl)-5-cyclopropylisoxazole-3-carboxamide]",2.2
5,"N[C@H]1CC[C@H](C(=O)N2[C@@H]3CC[C@H]2C[C@H](NC(=O)c2cc(C4CC4)on2)C3)CC1 [compound 101, N-((1R,3S,5S)-8-((1r,4R)-4-aminocyclohexane-1-carbonyl)-8-azabicyclo[3.2.1]octan-3-yl)-5-cyclopropylisoxazole-3-carboxamide]",> 10
6,"C[C@H]1CC(NC(=O)c2cc(C3CC3)on2)CCN1C(=O)CC(C)(C)CN (stereo partly drawn) [compound 103, N-((2S)-1-(4-amino-3,3-dimethylbutanoyl)-2-methylpiperidin-4-yl)-5-cyclopropylisoxazole-3-carboxamide]",1.45
7,"C[C@@H]1CC(NC(=O)c2cc(C3CC3)on2)CCN1C(=O)CC(C)(C)CN (stereo partly drawn) [compound 104, N-((2R)-1-(4-amino-3,3-dimethylbutanoyl)-2-methylpiperidin-4-yl)-5-cyclopropylisoxazole-3-carboxamide]",0.566
8,"C[C@H]1CC(NC(=O)c2cc(C3CC3)on2)CCN1C(=O)[C@H]1CC[C@H](N(C)C)CC1 (stereo partly drawn) [compound 105, 5-cyclopropyl-N-((2S)-1-((1r,4S)-4-(dimethylamino)cyclohexane-1-carbonyl)-2-methylpiperidin-4-yl)isoxazole-3-carboxamide]",20
9,"C[C@H]1CC(NC(=O)c2cc(C3CC3)on2)CCN1C(=O)[C@H]1CCC[C@H](N)C1 (stereo partly drawn) [compound 106, N-((2S)-1-((1S,3S)-3-aminocyclohexane-1-carbonyl)-2-methylpiperidin-4-yl)-5-cyclopropylisoxazole-3-carboxamide]",3.52
10,"C[C@@H]1CC(NC(=O)c2cc(C3CC3)on2)CCN1C(=O)C1CCCNC1 (stereo partly drawn) [compound 107, 5-cyclopropyl-N-((2R)-2-methyl-1-(piperidine-3-carbonyl)piperidin-4-yl)isoxazole-3-carboxamide]",2.52
11,"N[C@H]1CC[C@H](C(=O)N2CCC(NC(=O)c3cc(C4CC4)on3)CC2Cc2ccccc2)CC1 (stereo partly drawn) [compound 108, N-(1-((1r,4r)-4-aminocyclohexane-1-carbonyl)-2-benzylpiperidin-4-yl)-5-cyclopropylisoxazole-3-carboxamide]",1.42
12,"NC[C@H](Cc1ccc(O)c(C(F)(F)F)c1)C(=O)N1CCC(NC(=O)c2cc(C3CC3)on2)CC1 [compound 111, (S)-N-(1-(3-amino-2-(4-hydroxy-3-(trifluoromethyl)benzyl)propanoyl)piperidin-4-yl)-5-cyclopropylisoxazole-3-carboxamide]",2.47
13,"CC(C)c1cc(C[C@H](CN)C(=O)N2CCC(NC(=O)c3cc(C4CC4)on3)CC2)ccc1O [compound 112, (R)-N-(1-(3-amino-2-(4-hydroxy-3-isopropylbenzyl)propanoyl)piperidin-4-yl)-5-cyclopropylisoxazole-3-carboxamide]",1.09
14,"C[C@@H]1CC(NC(=O)c2cc(C3CC3)on2)CCN1C[C@H]1CC[C@H](N)CC1 (stereo partly drawn) [compound 113, N-((2R)-1-(((1r,4R)-4-aminocyclohexyl)methyl)-2-methylpiperidin-4-yl)-5-cyclopropylisoxazole-3-carboxamide]",4.59
15,"CC1(C)CC(NC(=O)c2cc(C3CC3)on2)CCN1C(=O)[C@H]1CC[C@H](N)CC1 (stereo partly drawn) [compound 114, N-(1-((1r,4r)-4-aminocyclohexane-1-carbonyl)-2,2-dimethylpiperidin-4-yl)-5-cyclopropylisoxazole-3-carboxamide]",1.31
16,"C[C@H]1CC(NC(=O)c2cc(C3CC3)on2)CCN1C(=O)CC1(C)CCNCC1 (stereo partly drawn) [compound 115, 5-cyclopropyl-N-((2S)-2-methyl-1-(2-(4-methylpiperidin-4-yl)acetyl)piperidin-4-yl)isoxazole-3-carboxamide]",0.472
17,"C[C@@H]1CC(NC(=O)c2cc(C3CC3)on2)CCN1C(=O)CC1(C)CCNCC1 (stereo partly drawn) [compound 116, 5-cyclopropyl-N-((2R)-2-methyl-1-(2-(4-methylpiperidin-4-yl)acetyl)piperidin-4-yl)isoxazole-3-carboxamide]",2.91

row,SMILES,IC50 [µM]
1,"C[C@H]1CC(NC(=O)c2cc(C3CC3)on2)CCN1C(=O)[C@H]1CCC[C@@H](N)C1 (stereo partly drawn) [compound 117, N-((2S)-1-((1S,3R)-3-aminocyclohexane-1-carbonyl)-2-methylpiperidin-4-yl)-5-cyclopropylisoxazole-3-carboxamide]",5.6
2,"CCOC(=O)C1CN(C(=O)CC2CCNCC2)CCC1NC(=O)c1cc(C2CC2)on1 (stereo not drawn) [compound 119, ethyl 4-(5-cyclopropylisoxazole-3-carboxamido)-1-(2-(piperidin-4-yl)acetyl)piperidine-3-carboxylate]",2.99
3,"NC[C@@H](Cc1ccc(O)c(C(F)(F)F)c1)C(=O)N1CCC(NC(=O)c2cc(C3CC3)on2)CC1 [compound 120, (R)-N-(1-(3-amino-2-(4-hydroxy-3-(trifluoromethyl)benzyl)propanoyl)piperidin-4-yl)-5-cyclopropylisoxazole-3-carboxamide]",0.0816
4,"C[C@@H]1CC(NC(=O)c2cc(C3CC3)on2)CCN1C(=O)N1CCC(N)CC1 (stereo partly drawn) [compound 122, N-((2R)-1-(4-aminopiperidine-1-carbonyl)-2-methylpiperidin-4-yl)-5-cyclopropylisoxazole-3-carboxamide]",0.851
5,"N[C@H]1CC[C@H](C(=O)N2CC3CC2CC3NC(=O)c2cc(C3CC3)on2)CC1 (stereo partly drawn) [compound 123, N-(2-((1r,4r)-4-aminocyclohexane-1-carbonyl)-2-azabicyclo[2.2.1]heptan-5-yl)-5-cyclopropylisoxazole-3-carboxamide]",1.17
6,"O=C(NC1CC2CCCC(C1)N2C(=O)CC1CCNCC1)c1cc(C2CC2)on1 (stereo not drawn) [compound 125, 5-cyclopropyl-N-(9-(2-(piperidin-4-yl)acetyl)-9-azabicyclo[3.3.1]nonan-3-yl)isoxazole-3-carboxamide]",7.76
7,"O=C(N[C@@H]1C[C@H]2CC[C@@H](C1)N2C(=O)CC1CCNCC1)c1cc(C2CC2)on1 [compound 126, 5-cyclopropyl-N-((1R,3s,5S)-8-(2-(piperidin-4-yl)acetyl)-8-azabicyclo[3.2.1]octan-3-yl)isoxazole-3-carboxamide]",9.86
8,"O=C(N[C@H]1C[C@H]2CC[C@@H](C1)N2C(=O)CC1CCNCC1)c1cc(C2CC2)on1 [compound 127, 5-cyclopropyl-N-((1R,3r,5S)-8-(2-(piperidin-4-yl)acetyl)-8-azabicyclo[3.2.1]octan-3-yl)isoxazole-3-carboxamide]",1.28
9,"C[C@H]1CC(NC(=O)c2cc(C3CC3)on2)CCN1C(=O)CC1CC2CCC(C1)N2 (stereo partly drawn) [compound 128, N-((2S)-1-(2-(8-azabicyclo[3.2.1]octan-3-yl)acetyl)-2-methylpiperidin-4-yl)-5-cyclopropylisoxazole-3-carboxamide]",0.844
10,"C[C@@H]1CC(NC(=O)c2cc(C3CC3)on2)CCN1C(=O)CC1CC2CCC(C1)N2 (stereo partly drawn) [compound 129, N-((2R)-1-(2-(8-azabicyclo[3.2.1]octan-3-yl)acetyl)-2-methylpiperidin-4-yl)-5-cyclopropylisoxazole-3-carboxamide]",0.595
11,"C[C@H]1CC(NC(=O)c2cc(C3CC3)on2)CCN1C(=O)C1CC2(CC(N)C2)C1 (stereo partly drawn) [compound 130, N-((2S)-1-(6-aminospiro[3.3]heptane-2-carbonyl)-2-methylpiperidin-4-yl)-5-cyclopropylisoxazole-3-carboxamide]",1.3
12,"C[C@H]1CC(NC(=O)c2cc(C3CC3)on2)CCN1C(=O)[C@H]1CC[C@H](N)CO1 (stereo partly drawn) [compound 131, N-((2S)-1-((2R,5S)-5-aminotetrahydro-2H-pyran-2-carbonyl)-2-methylpiperidin-4-yl)-5-cyclopropylisoxazole-3-carboxamide]",2.08
13,"C[C@H]1CC(NC(=O)c2cc(C3CC3)on2)CCN1C(=O)C1CCCNC1 (stereo partly drawn) [compound 132, 5-cyclopropyl-N-((2S)-2-methyl-1-(piperidine-3-carbonyl)piperidin-4-yl)isoxazole-3-carboxamide]",5.55
14,"C[C@H]1CC(NC(=O)c2cc(C3CC3)on2)CCN1C(=O)C[C@H](O)CCN (stereo partly drawn) [compound 133, N-((2S)-1-((R)-5-amino-3-hydroxypentanoyl)-2-methylpiperidin-4-yl)-5-cyclopropylisoxazole-3-carboxamide]",6.24
15,"C[C@@H]1CC(NC(=O)c2cc(C3CC3)on2)CCN1C(=O)C[C@H](O)CCN (stereo partly drawn) [compound 134, N-((2R)-1-((R)-5-amino-3-hydroxypentanoyl)-2-methylpiperidin-4-yl)-5-cyclopropylisoxazole-3-carboxamide]",1.86
16,"C[C@@H]1CC(NC(=O)c2cc(C3CC3)on2)CCN1C(=O)C1CNCC(O)C1 (stereo partly drawn) [compound 135, 5-cyclopropyl-N-((2R)-1-(5-hydroxypiperidine-3-carbonyl)-2-methylpiperidin-4-yl)isoxazole-3-carboxamide]",2.49

# From patent publication US10577363B2, “Substituted piperidine compounds” (EPIZYME, INC., priority 2014, dated 2020)
